The values that follow come from PMC7690608, “Combination Therapy of High-Dose Rabeprazole Plus Metronomic Capecitabine in Advanced Gastro-Intestinal Cancer: A Randomized Phase II Trial” (Cancers, 2020).

Like-named read-outs stand apart in the source and are kept apart here. Some results are limits rather than exact numbers.

Details of series [1]: species or system patients. The following applies: in vivo. As for the experimental part:
This is a randomized phase II study designed to detect the advantage of adding rabeprazole to mCAP as palliative treatment for patients with metastatic GI cancer, as previously described. Eligible patients were randomly assigned 1:1 to capecitabine, 1500 mg/daily, continuously with or without rabeprazole 1.5 mg/kg bid, three days a week. The randomization was computer generated by a statistician not involved in data collection, who was called by phone at the time of assignment. The protocol was not interrupted until progression of disease, unacceptable toxicity or death occurrence. This study was designed with the primary endpoint of 3-months progression-free survival (PFS) rate. […] Safety was evaluated by considering overall incidence and severity of adverse events (AEs) as well as the seriousness and drug-relatedness of each event (CTCAE v.4.03). […] Plasma concentrations of capecitabine and its metabolites, 5′-deoxy-5′-fluorouridine (5′-DFUR) and 5- fluorouracil (5-FU), were evaluated in order to assess the potential interaction between capecitabine and rabeprazole. […] Plasma samples, calibration standard samples and quality-control (QC) samples were analyzed using a high-performance liquid chromatography (HPLC) tandem mass spectrometry (LC/MS-MS) analytical method. […]

The next series concerns tumor pH. The arrangement: method as in PMID 19876915. The following applies: in vivo experiments; tumor pH shifts toward neutrality after treatment; cited from earlier work.
Series [2] has as its system metastatic gastrointestinal (GI) cancer. The experiment in a line: Randomized phase II trial: efficacy (3-months PFS, PFS, clinical benefit, OS; RECIST 1.1). The series is classed as in vivo, patients. The source says:
In addition, patients had to be 18 years of age or older, to have adequate bone-marrow, liver, and renal function and to have an Eastern Cooperative Oncology Group (ECOG) performance status ≤2. Meanwhile, the presence of one of the following criteria excluded patients’ participation to the study protocol: GI tumors that can be treated with standard treatments, cardiovascular or CNS disease, previously untreated CNS metastases, pregnant or breast-feeding patients, organ dysfunctions that usually hinder the use of cytotoxic drugs, and/or substance abuse and any other psychological condition that may interfere with the evaluation of study results. All patients were randomized and treated at the Oncology Unit of Sant’Andrea University Hospital, Rome. Every cancer patient is commonly managed at our Institution by a multidisciplinary team, who provides for the starting and the following clinical evaluations.
This is a randomized phase II study designed to detect the advantage of adding rabeprazole to mCAP as palliative treatment for patients with metastatic GI cancer, as previously described. Eligible patients were randomly assigned 1:1 to capecitabine, 1500 mg/daily, continuously with or without rabeprazole 1.5 mg/kg bid, three days a week. The randomization was computer generated by a statistician not involved in data collection, who was called by phone at the time of assignment. The protocol was not interrupted until progression of disease, unacceptable toxicity or death occurrence. This study was designed with the primary endpoint of 3-months progression-free survival (PFS) rate. PFS was defined as the length of time from the first dose of study drug to the date of the first documented disease progression according to the Response Evaluation Criteria in Solid Tumors (RECIST), version 1.1, or death for any reason, with censoring at the date of the last contact for alive patients. Secondary endpoints included the evaluation of clinical benefit (CB), which reflects the proportion of patients with complete response (CR), partial response (PR) and stable disease (SD) and overall survival (OS). The crossover between treatment groups was not allowed before the final analysis of the primary end point. Safety was evaluated by considering overall incidence and severity of adverse events (AEs) as well as the seriousness and drug-relatedness of each event (CTCAE v.4.03). AEs with an onset during treatment, or within 28 days after the last dose of the study drug, were considered as having occurred during treatment. We grouped anemia, neutropenia, and thrombocytopenia in hematological toxicity; diarrhea, nausea, and vomiting in gastrointestinal toxicity. In the two protocol arms, plasma concentrations of capecitabine and its metabolites were determined at 2 h from the assumption of two tablet of capecitabine (1000 mg), corresponding to the tmax of the drug. Plasma concentrations of capecitabine and its metabolites, 5′-deoxy-5′-fluorouridine (5′-DFUR) and 5- fluorouracil (5-FU), were evaluated in order to assess the potential interaction between capecitabine and rabeprazole. Blood samples (7 mL) were collected in vacutainers containing ethylenediaminetetraacetic acid (EDTA) as anticoagulant, then centrifuged and the plasma samples were stored at −20 °C until analysis. […] Plasma samples, calibration standard samples and quality-control (QC) samples were analyzed using a high-performance liquid chromatography (HPLC) tandem mass spectrometry (LC/MS-MS) analytical method. […]

For series [3], the system named is patients with metastatic GI cancer. Description: Randomized phase II trial: safety, adverse events (CTCAE v.4.03). The following applies: in vivo. The method, then: This is a randomized phase II study designed to detect the advantage of adding rabeprazole to mCAP as palliative treatment for patients with metastatic GI cancer, as previously described. Eligible patients were randomly assigned 1:1 to capecitabine, 1500 mg/daily, continuously with or without rabeprazole 1.5 mg/kg bid, three days a week. The randomization was computer generated by a statistician not involved in data collection, who was called by phone at the time of assignment. The protocol was not interrupted until progression of disease, unacceptable toxicity or death occurrence. This study was designed with the primary endpoint of 3-months progression-free survival (PFS) rate. PFS was defined as the length of time from the first dose of study drug to the date of the first documented disease progression according to the Response Evaluation Criteria in Solid Tumors (RECIST), version 1.1, or death for any reason, with censoring at the date of the last contact for alive patients. Secondary endpoints included the evaluation of clinical benefit (CB), which reflects the proportion of patients with complete response (CR), partial response (PR) and stable disease (SD) and overall survival (OS). The crossover between treatment groups was not allowed before the final analysis of the primary end point. Safety was evaluated by considering overall incidence and severity of adverse events (AEs) as well as the seriousness and drug-relatedness of each event (CTCAE v.4.03). AEs with an onset during treatment, or within 28 days after the last dose of the study drug, were considered as having occurred during treatment. We grouped anemia, neutropenia, and thrombocytopenia in hematological toxicity; diarrhea, nausea, and vomiting in gastrointestinal toxicity. In the two protocol arms, plasma concentrations of capecitabine and its metabolites were determined at 2 h from the assumption of two tablet of capecitabine (1000 mg), corresponding to the tmax of the drug. Plasma concentrations of capecitabine and its metabolites, 5′-deoxy-5′-fluorouridine (5′-DFUR) and 5- fluorouracil (5-FU), were evaluated in order to assess the potential interaction between capecitabine and rabeprazole. Blood samples (7 mL) were collected in vacutainers containing ethylenediaminetetraacetic acid (EDTA) as anticoagulant, then centrifuged and the plasma samples were stored at −20 °C until analysis. Plasma samples were collected at the start of the study, after 4 and 8 weeks of treatment. Plasma samples, calibration standard samples and quality-control (QC) samples were analyzed using a high-performance liquid chromatography (HPLC) tandem mass spectrometry (LC/MS-MS) analytical method. Plasma concentrations were reported in µg/mL (mean values and standard deviation (SD)).
The study was designed to have 90% power to detect a hazard ratio for the 3-months PFS of 0.60 (a 40% reduction in risk) in the mCAP-rabeprazole group as compared with the mCAP group, with a one-sided type I error rate of 0.05. Given the treatment assignment ratio of 1:1, we calculated that 66 patients had to be enrolled in the study, and at least 60 events (progression disease) would have been required for the primary analysis. For PFS and OS, the stratified log-rank test was used independently at the 2-sided, 0.05 level of significance, and Kaplan–Meier estimates performed for the graphic representation of both findings. An exact logistic regression model was used to test for a difference in CB between treatments, with the model adjusted by the same factors used to stratify the primary analysis of PFS. Adverse events and laboratory abnormalities were summarized for all patients who received at least one dose of study drug. The χ^2–test and t-test for unpaired data were applied to compare frequencies and means, respectively. SPSS statistical software, Version 24 (SPSS Inc. Chicago, IL, USA) was used.

For series [4], the system named is early stage colorectal cancer. Further details: method as in PMID 26803708. The note with it: cited from earlier work.

Consider `O=c1[nH]cc(F)c(=O)[nH]1` [5-FU, 5-fluorouracil], for which, in series [1], the “plasma values in the pre-dose analysis” value is “below zero”.

In the case of `COc1ccc2nc([S@@+]([O-])Cc3ncc(C)c(OC)c3C)[nH]c2c1` [esomeprazole], the “time for tumor pH to return to acidity after treatment discontinuation” value with tumor pH was at most 48 h.

Regarding `CCCCCOC(=O)Nc1nc(=O)n([C@@H]2O[C@H](C)[C@@H](O)[C@H]2O)cc1F` [mCAP, capecitabine], in series [2] (Kaplan–Meier), the “median OS” value was 6.0 (95%CI 4.0–7.9) months and the “median PFS” value was determined as 3.0 months. Further, in series [2] (human, in vivo), the “3-year OS rate” value is 12% and the “patients who reported a clinical benefit (CB: CR+PR+SD)” value was 31%. Moreover, the “patients who experienced a progression of the disease at the 3-months evaluation (primary end-point)” value in series [2] (intention-to-treat, mCAP 1500 mg/daily with or without rabeprazole 1.5 mg/kg bid three days a week) came to 57%. Also, in series [3] (human), the “Gastrointestinal G1, patients” value stood at 14%; the “Gastrointestinal G2, patients” value came out at 9%; the “Hand-foot syndrome G1, patients” value was determined as 3%; the “Hand-foot syndrome G2, patients” value turned out to be 11%. Also, in series [3] (human), the “Hematological toxicity G1, patients” value came to 6%; the “Hematological toxicity G2, patients” value turned out to be 6%; the Nausea was found to be 1 n; the Neutropenia is recorded as 0 n. In series [3] (human), the “adverse events of any grade, patients” value is recorded as 29%. Moreover, the severe adverse events result in series [3] is given as “no severe adverse event”. Besides, the “plasma values in the pre-dose analysis” value in series [1] is “below zero”. The Five-year recurrence-free survival in series [4] (adjuvant capecitabine with concurrent PPIs consumption) was 74%. The Five-year recurrence-free survival in series [4] (adjuvant capecitabine without concurrent PPIs consumption) is listed as 83%. For the same compound, the “HR for five-year recurrence-free survival” value in series [4] (with vs. without concurrent PPIs, p = 0.03) was 1.89.
